The source of these data is publication PMC9909315, “SY-707, an ALK/FAK/IGF1R inhibitor, suppresses growth and metastasis of breast cancer cells” (Acta Biochimica et Biophysica Sinica, 2022).

The target in test [1] is FAK, Pyk2, LTK, IRK and IGF1R. As to the kind of experiment: HTRF kinase enzyme assay, summary over several kinases. It counts as biochemical. The conditions noted are these: around; span over the named kinases. Here is the method: Homogeneous time-resolved fluorescence (HTRF) assay was performed to analyze kinase enzyme activity and compound potency using HTRF ® KinEASE ^TM-TK kit (Cisbio Bioassays, Shanghai, China). Compound SY-707 was serially diluted by 3 folds from 1 mM stock solution in DMSO, and 4 μL of the diluted solution of the compounds was added to 96 μL of reaction buffer (50 mM HEPES, pH 7.0, 0.1 mM Na 3VO 4, 0.01% BAS, 5 mM MgCl 2, 1 mM DTT), then 2.5 μL of 4× compound solution and 5 μL of 2× kinases solution were added to a 384-well plate (OptiPlate-384; PerkinElmer, Wellesley, USA ). The resulted solutions were briefly mixed, centrifuged and incubated for 5 min. Finally, 2.5 μL of 4× ATP/TK peptide (ATP at K m for each kinase) solution was added to the reaction system to initiate the reaction. The enzymatic reaction was carried out for 60-120 min at 23°C, then terminated by addition of 5 μL of detection solution containing TK antibody-cryptate and 5 μL of Streptravidin-XL-665. The mixture was incubated for additional 1 h at 23°C. The fluorescent signals were measured with an EnVision multilabel plate reader (PerkinElmer). IC 50 values of the compounds were calculated using the GraFit software (Version 6.0) and presented as the mean of three independent experiments performed in duplicate.

The test system of test [2] is A549. As to the kind of experiment: Cell proliferation assay (CellTiter-Glo/CellTiter-Blue). It is filed as cell-based. The conditions noted are these: Homo sapiens, A549, 72 h, read-out: IC50 anti-proliferation. As to the method:
(§1) MCF-7, T47D, MDA-MB-231, MIA Paca-2, PANC-1, SW620, HT-29, U87MG, and A549 cell lines were purchased from the Cell Bank of Chinese Academy of Science (Shanghai, China). Cells were cultured in DMEM or RPMI-1640 (Gibco, BRL, USA) supplemented with 10% FBS (HyClone, Logan, USA) and 50 IU penicillin/streptomycin in a humidified atmosphere with 5% CO 2 at 37°C. The effects of SY-707 on cell proliferation were measured using CellTiter-Glo ® or CellTiter-Blue ® Cell Viability Assay kits (Promega, Beijing, China). In brief, cells were seeded in 96-well plates at low destiny with 195 μL of medium per well. The stock solutions of compounds were 3-fold serially diluted with DMSO from 10 mM to 0.3 nM, and 4 μL of solution at each concentration was mixed with 96 μL of serum free medium, then 5 μL of the resulted solution was added to each well. After treatment for 72 h, 25 μL of CellTiter-Glo ® reagent (for adherent cells) or 35 μL CellTiter-Blue ® reagent (for suspension cells) was added to each well, and the resulted mixture was further incubated at room temperature for 10 min or 4 h. The luminescence signals were measured using EnVision ® multilabel plate reader (PerkinElmer), and the fluorescent signals were examined using FlexStation 3 (Molecular Devices, Sunnyvale, USA), and the IC 50 values were calculated using Prism ® software (Version 5.0) and presented as the average of three independent experiments performed in duplicate.
A general note: Cellular ATP, detected with luciferase, serves as a proxy for viable cell number.

Test [3] relates to HT29. The description is as above. It counts as cell-based. The conditions noted are these: Homo sapiens, HT-29, 72 h, read-out: IC50 anti-proliferation. As to the method: as §1
The subject of test [4] is MCF-7. The test is described as above. It counts as cell-based. The conditions noted are these: Homo sapiens, MCF7, 72 h, read-out: IC50 anti-proliferation. As to the method: as §1
Test [5] relates to MDA-MB-231. Described as above. The conditions noted are these: Homo sapiens, MDA-MB-231, 72 h, read-out: IC50 anti-proliferation. It is filed as cell-based. Here is the method:
as §1

Test [6] concerns MIA PACA-2. The description is as above. It counts as cell-based. The conditions noted are these: Homo sapiens, MIA PaCa-2, 72 h, read-out: IC50 anti-proliferation. Here is the method:
as §1

Test [7] has as its system PANC-1. The description is as above. It counts as cell-based. The conditions noted are these: Homo sapiens, PANC-1, 72 h, read-out: IC50 anti-proliferation. As to the method: as §1
Test [8] deals with SW620. The description is as above. It counts as cell-based. The conditions noted are these: Homo sapiens, SW-620, 72 h, read-out: IC50 anti-proliferation. As to the method:
as §1

The test system of test [9] is T47D. Described as above. It is filed as cell-based. The conditions noted are these: Homo sapiens, 72 h, read-out: IC50 anti-proliferation. As to the method:
as §1

For test [10], the system named is U87MG. The description is as above. It is filed as cell-based. The conditions noted are these: Homo sapiens, U-87 MG, 72 h, read-out: IC50 anti-proliferation. Here is the method: as §1
Test [11] relates to phosphorylation of FAK at Tyr397. As to the kind of experiment: Western blot of FAK phosphorylation in T47D cells. It counts as cell-based. The conditions noted are these: 1 h treatment. Here is the method:
Equal amounts of cell lysates were loaded onto 10% SDS-PAGE gel and separated by electrophoresis. Separated proteins were then electro-transferred onto polyvinylidene fluoride (PVDF) membranes (Millipore, Bedford, USA). After being blocked with Tris-buffered saline containing 0.1% Tween-20 (TBST) and 5% bovine serum albumin (BSA), the membranes were incubated with primary antibodies at room temperature for 2 hours or at 4°C, then washed with TBST, followed by treatment with horseradish peroxidase (HRP)-conjugated goat anti-rabbit IgG secondary antibody at room temperature for another 1 h. The targeted protein bands were visualized using an enhanced chemiluminescence (ECL) plus system (Thermo Fisher Scientific). Primary antibodies against phospho-FAK (3283, 1:1000 dilution), phospho-ERK (4377, 1:2000 dilution), phospho-AKT (4060, 1:2000 dilution), FAK (3285, 1:1000 dilution), AKT (6703, 1:1000 dilution) and β-Actin (5125, 1:10,0000 dilution) were purchased from Cell Signaling Technology (Beverly, USA) and the HRP-conjugated goat anti-rabbit IgG (ZDR-5306, 1:10,000 dilution) was purchased from Jackson (West Grove, USA ).
Cells were cultured in 6-well plates and treated with the indicated concentrations of SY-707 for 1 h before stimulation with or without 100 ng/mL IGF1 for 10 min. Control cells received the drug vehicle with 0.1% DMSO. […]
A general note: In western blotting, separated proteins are transferred to a membrane and probed.

Test [12] relates to T47D xenograft. The experiment in a line: T47D tumor xenograft study. It counts as in vivo, nude mice. As to the method:
Due to the strong cell growth inhibition potency of SY-707, we firstly evaluate its in vivo anti-cancer activity in T47D xenograft model mice. In this model, mice were orally administered twice a day with vehicle or SY-707 at dose of 100, 50 or 25 mg/kg after tumor size reached 150–300 mm ^3.
Next, we evaluated the combination effects of SY-707 and paclitaxel (an approved drug for breast cancer therapy) in T47D xenograft model. Mice bearing T47D breast cancer were divided randomly into 4 groups: vehicle, SY-707 (100 mg/kg/day), paclitaxel (10 mg/kg/week), and SY-707 plus paclitaxel groups.

Bounds are passed on as bounds.

`COc1cc(N2CCC(N3CCN(C)CC3)CC2)ccc1Nc1nc2c(c(Nc3ccccc3S(=O)(=O)NC(C)C)n1)CCN2` [SY-707, N-isopropyl-2-((2-((2-methoxy-4-(4-(4-methylpiperazin-1-yl)piperidin-1-yl)phenyl)amino)-6,7-dihydro-5H-pyrrolo[2,3-d]pyrimidin-4-yl)amino)benzenesulfonamide]: the IC50 in [1] was 0.001 to 0.01 µM; in test [2], 5.7 µM; in test [3], 0.6 µM; in test [4] it was 0.59 µM; in [5], 1.9 µM; in test [6], 1.3 µM. For the same compound, the IC50 in test [7] is 1.2 µM; in test [8], 0.81 µM; in test [9], 1.8 µM; in [10], above 10 µM. Besides, the “phosphorylation of FAK at Tyr397” value in test [11] is “dose-dependently suppressed”. The “tumor growth inhibition rate” value in [12] (25 mg/kg orally twice a day, 21 days, P<0.05) was 31%; in test [12] (50 mg/kg orally twice a day, 21 days, P<0.05), 39%; in test [12] (100 mg/kg orally twice a day, 21 days, P<0.01), 61%; in test [12] (combination study, SY-707 100 mg/kg/day alone, 24 days), 14%.
